From ChEMBL document CHEMBL5291721, “A preclinical secondary pharmacology resource illuminates target-adverse drug reaction associations of marketed drugs” (Nat Commun, 2023)

Assays:
[1] = target: T1, Estrogen receptor (Homo sapiens, UniProt P03372)
T1 sequence (P03372 whole entry): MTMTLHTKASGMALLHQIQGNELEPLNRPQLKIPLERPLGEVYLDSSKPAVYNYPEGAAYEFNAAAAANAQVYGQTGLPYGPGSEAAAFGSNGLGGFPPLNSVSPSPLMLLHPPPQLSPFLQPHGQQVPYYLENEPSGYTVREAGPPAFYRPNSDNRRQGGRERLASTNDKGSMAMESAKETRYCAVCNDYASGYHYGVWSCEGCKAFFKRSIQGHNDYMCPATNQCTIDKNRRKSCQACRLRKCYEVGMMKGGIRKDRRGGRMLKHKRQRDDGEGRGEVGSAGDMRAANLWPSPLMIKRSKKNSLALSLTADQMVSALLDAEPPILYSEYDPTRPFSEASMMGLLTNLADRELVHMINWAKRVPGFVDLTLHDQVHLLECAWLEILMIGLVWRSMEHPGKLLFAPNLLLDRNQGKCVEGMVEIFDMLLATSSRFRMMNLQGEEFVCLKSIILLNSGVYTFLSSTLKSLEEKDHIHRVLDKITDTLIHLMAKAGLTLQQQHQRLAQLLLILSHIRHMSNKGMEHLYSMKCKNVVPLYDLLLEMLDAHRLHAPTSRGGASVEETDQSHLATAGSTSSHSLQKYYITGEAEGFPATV

[2] = target: T2, Muscarinic acetylcholine receptor M1 (Homo sapiens, UniProt P11229); assay type: functional, cell-based
T2 sequence (P11229 whole entry): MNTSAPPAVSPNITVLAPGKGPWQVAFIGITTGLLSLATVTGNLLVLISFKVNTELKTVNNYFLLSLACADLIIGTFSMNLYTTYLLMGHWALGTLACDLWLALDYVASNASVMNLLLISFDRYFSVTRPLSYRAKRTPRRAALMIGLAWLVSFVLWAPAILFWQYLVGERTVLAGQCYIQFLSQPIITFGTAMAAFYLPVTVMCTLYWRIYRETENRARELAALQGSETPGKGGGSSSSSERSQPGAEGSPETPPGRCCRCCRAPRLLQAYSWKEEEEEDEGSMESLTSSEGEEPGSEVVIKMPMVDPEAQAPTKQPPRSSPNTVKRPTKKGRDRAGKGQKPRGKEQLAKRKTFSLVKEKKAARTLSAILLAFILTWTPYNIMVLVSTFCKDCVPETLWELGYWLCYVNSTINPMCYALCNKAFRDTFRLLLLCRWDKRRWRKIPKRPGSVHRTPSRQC

[3] = target: T3, 5-hydroxytryptamine receptor 1A (Homo sapiens, UniProt P08908); assay type: functional, cell-based
T3 sequence (P08908 whole entry): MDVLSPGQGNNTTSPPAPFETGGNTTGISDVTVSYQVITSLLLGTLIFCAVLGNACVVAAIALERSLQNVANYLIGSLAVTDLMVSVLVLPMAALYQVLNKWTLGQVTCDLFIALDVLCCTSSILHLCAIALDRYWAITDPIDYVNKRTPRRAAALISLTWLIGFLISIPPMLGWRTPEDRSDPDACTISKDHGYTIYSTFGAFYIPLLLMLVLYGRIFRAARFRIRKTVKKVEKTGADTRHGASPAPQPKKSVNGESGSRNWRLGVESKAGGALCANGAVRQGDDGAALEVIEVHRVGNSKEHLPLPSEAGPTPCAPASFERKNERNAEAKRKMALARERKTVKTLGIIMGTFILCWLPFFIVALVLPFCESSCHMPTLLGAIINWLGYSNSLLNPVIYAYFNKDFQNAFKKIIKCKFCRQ

[4] = target: Sodium-dependent dopamine transporter (Homo sapiens, UniProt Q01959)
[5] = target: T4, Alpha-1A adrenergic receptor (Homo sapiens, UniProt P35348); assay type: functional, cell-based
T4 sequence (P35348 whole entry): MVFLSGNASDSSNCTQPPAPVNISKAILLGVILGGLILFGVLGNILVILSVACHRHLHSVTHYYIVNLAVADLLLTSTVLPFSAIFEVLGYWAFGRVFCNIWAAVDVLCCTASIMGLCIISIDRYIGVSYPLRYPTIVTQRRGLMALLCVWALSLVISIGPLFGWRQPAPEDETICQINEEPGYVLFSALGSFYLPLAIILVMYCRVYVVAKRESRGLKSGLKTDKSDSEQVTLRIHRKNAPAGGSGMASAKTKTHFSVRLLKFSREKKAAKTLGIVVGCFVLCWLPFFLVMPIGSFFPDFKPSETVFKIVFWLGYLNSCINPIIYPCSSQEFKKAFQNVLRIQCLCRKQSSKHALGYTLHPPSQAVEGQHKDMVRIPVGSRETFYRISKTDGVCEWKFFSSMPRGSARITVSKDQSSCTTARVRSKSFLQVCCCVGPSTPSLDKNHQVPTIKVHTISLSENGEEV

[6] = target: Adenosine receptor A2a (Homo sapiens, UniProt P29274)
[7] = target: Histamine H3 receptor (Homo sapiens, UniProt Q9Y5N1)
[8] = target: 5-hydroxytryptamine receptor 2B (Homo sapiens, UniProt P41595); assay type: functional, cell-based
[9] = target: T5, Alpha-2C adrenergic receptor (Homo sapiens, UniProt P18825); assay type: functional
T5 sequence (P18825 whole entry): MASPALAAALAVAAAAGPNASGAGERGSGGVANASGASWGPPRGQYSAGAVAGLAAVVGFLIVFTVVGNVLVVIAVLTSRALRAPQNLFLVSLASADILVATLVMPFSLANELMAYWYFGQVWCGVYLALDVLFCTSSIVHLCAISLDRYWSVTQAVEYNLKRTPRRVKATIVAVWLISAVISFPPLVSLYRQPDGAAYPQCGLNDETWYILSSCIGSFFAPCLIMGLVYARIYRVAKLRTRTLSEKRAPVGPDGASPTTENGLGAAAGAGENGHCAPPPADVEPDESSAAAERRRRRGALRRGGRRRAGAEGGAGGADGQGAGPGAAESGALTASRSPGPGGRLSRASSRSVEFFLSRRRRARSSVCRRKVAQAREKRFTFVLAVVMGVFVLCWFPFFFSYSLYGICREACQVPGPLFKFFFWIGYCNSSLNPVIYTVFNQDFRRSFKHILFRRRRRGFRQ

[10] = target: Cannabinoid receptor 1 (Homo sapiens, UniProt P21554); assay type: functional, cell-based
[11] = target: cGMP-inhibited 3',5'-cyclic phosphodiesterase 3A (Homo sapiens, UniProt Q14432); assay type: functional
Note: assay procedure not described here.

5-hydroxytryptamine receptor 2B, sequence (P41595 whole entry): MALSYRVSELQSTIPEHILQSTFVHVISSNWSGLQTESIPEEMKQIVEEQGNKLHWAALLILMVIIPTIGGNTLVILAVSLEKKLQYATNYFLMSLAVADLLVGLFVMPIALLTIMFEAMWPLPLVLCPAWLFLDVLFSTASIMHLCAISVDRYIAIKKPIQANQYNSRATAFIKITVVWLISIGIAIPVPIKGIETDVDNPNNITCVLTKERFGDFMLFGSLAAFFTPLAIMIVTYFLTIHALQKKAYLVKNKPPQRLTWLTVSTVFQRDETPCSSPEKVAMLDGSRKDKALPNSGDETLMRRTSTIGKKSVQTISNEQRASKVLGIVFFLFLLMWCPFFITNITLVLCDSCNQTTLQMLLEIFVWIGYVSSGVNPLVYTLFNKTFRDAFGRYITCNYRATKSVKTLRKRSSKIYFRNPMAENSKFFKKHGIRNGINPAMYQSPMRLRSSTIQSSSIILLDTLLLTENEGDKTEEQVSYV
Histamine H3 receptor, sequence (Q9Y5N1 whole entry): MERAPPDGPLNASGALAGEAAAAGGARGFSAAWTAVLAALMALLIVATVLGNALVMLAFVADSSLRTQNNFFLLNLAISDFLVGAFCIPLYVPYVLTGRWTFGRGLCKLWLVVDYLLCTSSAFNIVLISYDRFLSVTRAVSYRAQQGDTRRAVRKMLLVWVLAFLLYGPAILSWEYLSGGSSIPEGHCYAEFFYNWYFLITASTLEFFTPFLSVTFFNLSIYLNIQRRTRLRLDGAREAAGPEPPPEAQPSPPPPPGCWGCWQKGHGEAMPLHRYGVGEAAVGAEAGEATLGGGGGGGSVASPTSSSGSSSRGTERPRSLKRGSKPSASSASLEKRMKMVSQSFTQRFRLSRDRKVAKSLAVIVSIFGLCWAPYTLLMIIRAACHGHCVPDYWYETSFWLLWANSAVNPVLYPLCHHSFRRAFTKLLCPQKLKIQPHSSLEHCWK
Adenosine receptor A2a, sequence (P29274 whole entry): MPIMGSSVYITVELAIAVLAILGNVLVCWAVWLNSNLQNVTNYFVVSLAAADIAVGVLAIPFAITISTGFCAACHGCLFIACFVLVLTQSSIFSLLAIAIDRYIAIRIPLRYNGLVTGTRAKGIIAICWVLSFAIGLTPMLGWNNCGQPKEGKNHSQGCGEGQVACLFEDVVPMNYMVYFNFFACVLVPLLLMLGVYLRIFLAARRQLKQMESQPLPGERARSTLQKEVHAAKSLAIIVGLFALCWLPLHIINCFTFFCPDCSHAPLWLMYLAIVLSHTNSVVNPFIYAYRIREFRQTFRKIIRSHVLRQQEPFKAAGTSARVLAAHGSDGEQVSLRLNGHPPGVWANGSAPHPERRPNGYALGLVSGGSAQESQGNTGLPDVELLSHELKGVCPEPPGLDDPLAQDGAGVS
Cannabinoid receptor 1, sequence (P21554 whole entry): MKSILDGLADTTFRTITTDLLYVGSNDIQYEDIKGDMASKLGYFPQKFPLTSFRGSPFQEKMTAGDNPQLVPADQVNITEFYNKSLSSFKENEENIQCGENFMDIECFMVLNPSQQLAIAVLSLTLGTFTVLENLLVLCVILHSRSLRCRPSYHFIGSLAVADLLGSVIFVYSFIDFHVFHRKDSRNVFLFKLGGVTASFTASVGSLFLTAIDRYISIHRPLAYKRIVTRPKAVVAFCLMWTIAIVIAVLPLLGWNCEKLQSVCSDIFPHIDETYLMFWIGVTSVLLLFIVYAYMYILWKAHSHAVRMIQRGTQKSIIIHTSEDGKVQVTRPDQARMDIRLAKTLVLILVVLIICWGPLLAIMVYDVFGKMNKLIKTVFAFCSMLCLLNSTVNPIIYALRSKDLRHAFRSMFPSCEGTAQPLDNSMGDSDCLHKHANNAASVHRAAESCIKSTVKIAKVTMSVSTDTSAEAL
Sodium-dependent dopamine transporter, sequence (Q01959 whole entry): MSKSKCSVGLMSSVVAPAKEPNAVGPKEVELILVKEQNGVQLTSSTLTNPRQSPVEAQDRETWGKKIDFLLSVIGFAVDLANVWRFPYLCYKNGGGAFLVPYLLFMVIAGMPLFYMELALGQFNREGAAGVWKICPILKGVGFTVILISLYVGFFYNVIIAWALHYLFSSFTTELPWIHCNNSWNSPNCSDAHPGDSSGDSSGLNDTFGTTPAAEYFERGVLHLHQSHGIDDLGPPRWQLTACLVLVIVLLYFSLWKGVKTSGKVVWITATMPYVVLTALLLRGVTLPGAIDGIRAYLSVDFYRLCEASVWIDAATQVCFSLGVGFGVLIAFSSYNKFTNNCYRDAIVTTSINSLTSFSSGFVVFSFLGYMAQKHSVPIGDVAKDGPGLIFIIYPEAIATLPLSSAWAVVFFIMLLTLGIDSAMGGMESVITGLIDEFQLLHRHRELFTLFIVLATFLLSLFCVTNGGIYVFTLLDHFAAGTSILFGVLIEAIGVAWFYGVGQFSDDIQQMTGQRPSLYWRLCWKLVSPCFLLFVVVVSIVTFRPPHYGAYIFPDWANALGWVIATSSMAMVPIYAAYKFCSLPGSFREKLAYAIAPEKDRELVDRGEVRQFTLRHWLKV
cGMP-inhibited 3',5'-cyclic phosphodiesterase 3A, sequence (Q14432 whole entry): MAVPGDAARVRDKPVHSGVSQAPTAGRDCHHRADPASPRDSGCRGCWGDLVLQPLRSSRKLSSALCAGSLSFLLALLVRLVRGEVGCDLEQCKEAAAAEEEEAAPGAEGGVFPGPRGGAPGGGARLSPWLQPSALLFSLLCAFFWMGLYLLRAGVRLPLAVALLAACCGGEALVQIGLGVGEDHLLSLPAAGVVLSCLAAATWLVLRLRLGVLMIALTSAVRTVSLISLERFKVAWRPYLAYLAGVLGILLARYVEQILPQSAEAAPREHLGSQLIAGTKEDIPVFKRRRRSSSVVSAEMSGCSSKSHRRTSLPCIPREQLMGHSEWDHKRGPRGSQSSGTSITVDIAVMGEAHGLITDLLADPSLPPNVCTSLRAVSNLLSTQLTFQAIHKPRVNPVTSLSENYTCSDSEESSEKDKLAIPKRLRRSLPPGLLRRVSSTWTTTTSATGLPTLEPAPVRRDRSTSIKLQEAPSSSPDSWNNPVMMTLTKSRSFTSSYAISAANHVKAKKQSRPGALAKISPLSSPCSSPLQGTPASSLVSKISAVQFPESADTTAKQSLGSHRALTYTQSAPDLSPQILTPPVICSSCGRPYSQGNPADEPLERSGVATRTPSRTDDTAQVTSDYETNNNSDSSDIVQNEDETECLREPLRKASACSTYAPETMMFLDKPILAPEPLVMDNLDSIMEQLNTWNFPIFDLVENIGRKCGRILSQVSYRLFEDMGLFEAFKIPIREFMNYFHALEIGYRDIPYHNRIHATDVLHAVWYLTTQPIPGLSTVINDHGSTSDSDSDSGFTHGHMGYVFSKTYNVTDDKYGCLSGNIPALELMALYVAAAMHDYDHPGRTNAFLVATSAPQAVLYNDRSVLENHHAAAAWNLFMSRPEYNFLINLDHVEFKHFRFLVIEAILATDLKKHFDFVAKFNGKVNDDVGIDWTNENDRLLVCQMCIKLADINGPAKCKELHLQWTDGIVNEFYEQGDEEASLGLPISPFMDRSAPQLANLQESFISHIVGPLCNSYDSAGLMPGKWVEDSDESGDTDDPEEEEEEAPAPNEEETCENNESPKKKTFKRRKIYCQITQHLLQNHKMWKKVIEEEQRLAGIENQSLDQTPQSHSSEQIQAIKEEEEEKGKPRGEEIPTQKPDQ

Compound	AC50 [1] [µM]	AC50 [2] [µM]	AC50 [4] [µM]	AC50 [6] [µM]	AC50 [7] [µM]	AC50 [8] [µM]	also measured
Cn1c(=O)c2c(ncn2CC(O)CO)n(C)c1=O (configuration not stated) [DYPHYLLINE]	> 30	–	–	–	–	–	–
C[C@]12CC[C@@H]3c4ccc(O)cc4CC[C@H]3[C@@H]1CC[C@@H]2OC(=O)CCC1CCCC1 [ESTRADIOL CYPIONATE]	0.379	> 30	–	–	–	–	–
CC1(C)O[C@@H]2C[C@H]3[C@@H]4CCC5=CC(=O)CC[C@]5(C)[C@@]4(F)[C@@H](O)C[C@]3(C)[C@]2(C(=O)CCl)O1 [HALCINONIDE]	> 30	–	–	–	–	–	–
C[C@]12CCC(=O)C=C1CC[C@@H]1[C@@H]2[C@@H](O)C[C@@]2(C)[C@H]1CC[C@]2(O)C(=O)COC(=O)CCC(=O)O [HYDROCORTISONE HEMISUCCINATE ANHYDROUS]	> 30	> 30	–	–	–	–	–
N=C(N)NCc1cccc([123I])c1 [IOBENGUANE I 123]	> 30	> 30	–	–	–	–	–
CC(C)(N)C(=O)N[C@H](Cc1c[nH]c2ccccc12)C(=O)N[C@H](Cc1c[nH]c2ccccc12)NC=O [MACIMORELIN]	> 30	> 30	–	–	–	–	–
CCOc1cc(N)c(Cl)cc1C(=O)NCC1CN(Cc2ccc(F)cc2)CCO1 (configuration not stated) [MOSAPRIDE]	> 30	–	–	–	–	–	–
CN1CCC[C@H]1c1cccnc1 [NICOTINE]	> 30	–	–	–	–	–	–
CNCCC=C1c2ccccc2CCc2ccccc21 [NORTRIPTYLINE]	–	–	3.2	> 30	> 30	0.73	AC50 [3]: 8 µM; AC50 [5]: 0.036 µM
COc1ccc(Cc2nccc3cc(OC)c(OC)cc23)cc1OC [PAPAVERINE]	–	–	> 30	> 30	> 30	> 30	AC50 [9]: > 30 µM; AC50 [10]: > 30 µM; AC50 [5]: > 30 µM
CN(C)CCC(c1ccccc1)c1ccccn1 (configuration not stated) [PHENIRAMINE]	–	> 30	–	–	–	–	–
CNC[C@H](O)c1cccc(O)c1 [PHENYLEPHRINE]	–	> 30	> 10	> 30	> 10	> 30	AC50 [3]: > 10 µM; AC50 [11]: > 30 µM; AC50 [10]: > 30 µM
NC(=O)c1ncn([C@@H]2O[C@H](CO)[C@@H](O)[C@H]2O)n1 [RIBAVIRIN]	–	–	> 10	> 10	> 10	> 10	AC50 [9]: > 10 µM; AC50 [11]: > 30 µM; AC50 [10]: > 30 µM; AC50 [5]: > 30 µM
O=C(Nc1c(Cl)cncc1Cl)c1ccc(OC(F)F)c(OCC2CC2)c1 [ROFLUMILAST]	–	–	> 30	> 30	> 30	> 30	AC50 [9]: > 30 µM; AC50 [11]: > 30 µM; AC50 [10]: > 30 µM; AC50 [5]: > 30 µM
CCCCCCCCNC(C)C(O)c1ccc(SC(C)C)cc1 (configuration not stated) [SULOCTIDIL]	16.7	–	–	–	–	–	–
CCCCNc1ccc(C(=O)OCCN(C)C)cc1 [TETRACAINE]	–	–	> 10	> 30	> 10	33	AC50 [3]: > 10 µM; AC50 [9]: > 10 µM; AC50 [11]: > 30 µM; AC50 [10]: > 30 µM; AC50 [5]: > 30 µM
CCCCCCCCCCCCCCCC(=O)OC/C=C(C)/C=C/C=C(C)/C=C/C1=C(C)CCCC1(C)C [VITAMIN A PALMITATE]	–	> 30	–	–	–	–	–
